Results: paper PMC3731359 (PLoS ONE, 2013)
Entries after “also recorded” stand apart in the source; their conditions may differ.

How the values were obtained:
Ubc12 (E2) = assay: Western blot: transfer of UB variants to Ubc12; type: biochemical; settings: 5 µM HA-tagged protein, 1 µM NAE, 1 µM Ubc12, 1 µM cullin, 1 mM ATP, 1 h, room temperature, anti-HA Western blot
Method: (§1) Figure 6 Transfer of phage selected UB variants to NAE (E1), Ubc12 (E2), and cullin-3. HA-tagged wt UB, wt Nedd8 and UB variants were used in the assay. In the control reaction, either Ubc12 or cullin-3 in complex with Rbx1 was missing. The blots were probed with a mouse anti-HA antibody and a goat anti-mouse IgG antibody linked to HRP.
(§2) 20 µL of the reaction mixture were loaded on a 4–15% SDS-PAGE gel (Bio-Rad). After electrophoresis, the protein bands were electroblotted onto a piece of polyvinylidene fluoride membrane (Bio-Rad). The membrane was blocked with 3% BSA in TBS buffer for 1 hour followed by incubation with 3% BSA in TBS buffer containing 1∶500 diluted 200 µg/mL anti-HA antibody (Santa Cruz Biotechnology) and 1∶10,000 diluted anti-mouse horseradish peroxidase conjugate (Pierce) for 1 hour, respectively. The membrane was then washed 5 times with TBS-T buffer and 5 times with TBS buffer followed by detection with the ECL luminescent detection kit (GE Healthcare).

NAE (E1) = assay: Western blot: formation of UB∼NAE thioester conjugates; type: biochemical; settings: 5 µM HA-tagged protein, 1 µM NAE, 1 mM ATP, 1 h, room temperature, anti-HA Western blot
Method: as §1, §2

cullin-3 [1] = assay: Western blot: transfer of UB variants to cullin-3; type: biochemical; settings: 5 µM HA-tagged protein, 1 µM NAE, 1 µM Ubc12, 1 µM cullin, 1 mM ATP, 1 h, room temperature, anti-HA Western blot
Method: as §1, §2

Ubc12 [2] = assay: Western blot: peptide transfer to Ubc12; type: biochemical; settings: 5 µM peptide biotin-conjugated at N-terminus, 1 µM NAE, 1 µM Ubc12, 1 µM cullin, 1 h, room temperature, streptavidin-HRP blot
Method: (§3) The peptides were conjugated to biotin at their N-termini. The Uba3 subunit of NAE formed the thioester conjugate with the peptides. The Western blot was probed with streptavidin conjugated to HRP.
(§4) Biotin Conjugation of the Peptides
(§5) Heptameric peptides with the C-terminal sequences of wt UB, wt Nedd8, and UB variants from phage selection were ordered from EZBiolab (Carmel, Indiana). The peptides were further purified by HPLC to be more than 95% pure. Peptide pN1 (2 mg, […]) was added to a solution of N-hydroxysuccinimidyl-6′-(biotinamido)-6-hexanamido hexanoate (NHS-LC-LC-biotin, Pierce) (4.4 mg, 7.750 µmol) in 50 mM sodium phosphate buffer (pH 7.0, 300 µL) and DMSO (300 µL). The reaction was allowed to proceed by stirring overnight at room temperature. The reaction mixture was then purified by HPLC with a gradient of 5–85% acetonitrile in 0.1% TFA/water at a flow rate of 10 mL/min over the course of 25 minutes. Biotin was conjugated to the N-terminal amino groups of the peptides pN7 and N26 with the same procedure. The purified biotin-peptide conjugates were lyophilized, and their identities were confirmed via MALDI-TOF mass spectrometry (positive mode): biotin-pN1 (VWLSYGG), calculated: 1256.10 Da (MNa^+), found: 1254.87 Da; biotin-pN7 (VMLFYGG), calculated: 1261.19 Da (MNa^+), found:1260.49 Da; biotin-pN26 (VLALRGG), calculated: 1138.06 Da (MH^+), found:1137.78 Da.
(§6) To assay the transfer of biotin conjugated peptides to NAE, Ubc12 and cullin, 5 µM biotin labeled peptide, 1 µM NAE, 1 µM Ubc12 and 1 µM cullin were incubated with 1 mM ATP, 10 mM MgCl2 and 50 µM DTT in the TBS buffer for 1 hour at room temperature before SDS-PAGE and membrane blotting. The membrane was blocked with 3% BSA in TBS buffer for 1 hour followed by incubation with 3% BSA in TBS buffer containing 1∶10,000 diluted 1 mg/mL streptavidin-horse radish peroxidase conjugate (Pierce) for 1 hour. The membrane was then washed 5 times with TBS-T buffer and 5 times with TBS buffer followed by detection with the ECL luminescent detection kit.

cullin 3 = assay: Western blot: peptide transfer to cullin 3; type: biochemical; settings: 5 µM peptide biotin-conjugated at N-terminus, 1 µM NAE, 1 µM Ubc12, 1 µM cullin, 1 h, room temperature, streptavidin-HRP blot
Method: as §3, §4, §5, §6

NAE [3] = target: T1, NAE (Homo sapiens, UniProt Q13564+Q8TBC4); assay: Western blot: peptide∼NAE thioester conjugate formation; type: biochemical; settings: 5 µM peptide biotin-conjugated at N-terminus, 1 µM NAE, 1 mM ATP, 1 h, room temperature, streptavidin-HRP blot
T1 construct: made in house; host or cells: E. coli BL21(DE3)pLysS
T1 sequence (Q8TBC4 22-463 limits assumed): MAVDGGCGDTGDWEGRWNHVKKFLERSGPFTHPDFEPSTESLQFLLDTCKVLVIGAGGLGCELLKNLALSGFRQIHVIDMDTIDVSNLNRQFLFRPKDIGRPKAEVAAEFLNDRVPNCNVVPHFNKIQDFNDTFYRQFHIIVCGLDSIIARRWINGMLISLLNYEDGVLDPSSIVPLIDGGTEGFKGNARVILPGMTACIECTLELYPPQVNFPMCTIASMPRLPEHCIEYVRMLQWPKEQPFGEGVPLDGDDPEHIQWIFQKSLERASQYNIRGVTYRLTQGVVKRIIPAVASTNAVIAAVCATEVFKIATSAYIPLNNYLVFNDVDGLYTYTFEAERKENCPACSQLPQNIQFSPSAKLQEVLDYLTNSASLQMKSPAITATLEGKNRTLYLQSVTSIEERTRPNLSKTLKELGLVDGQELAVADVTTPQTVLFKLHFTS
T1 sequence (Q13564 1-534 partner): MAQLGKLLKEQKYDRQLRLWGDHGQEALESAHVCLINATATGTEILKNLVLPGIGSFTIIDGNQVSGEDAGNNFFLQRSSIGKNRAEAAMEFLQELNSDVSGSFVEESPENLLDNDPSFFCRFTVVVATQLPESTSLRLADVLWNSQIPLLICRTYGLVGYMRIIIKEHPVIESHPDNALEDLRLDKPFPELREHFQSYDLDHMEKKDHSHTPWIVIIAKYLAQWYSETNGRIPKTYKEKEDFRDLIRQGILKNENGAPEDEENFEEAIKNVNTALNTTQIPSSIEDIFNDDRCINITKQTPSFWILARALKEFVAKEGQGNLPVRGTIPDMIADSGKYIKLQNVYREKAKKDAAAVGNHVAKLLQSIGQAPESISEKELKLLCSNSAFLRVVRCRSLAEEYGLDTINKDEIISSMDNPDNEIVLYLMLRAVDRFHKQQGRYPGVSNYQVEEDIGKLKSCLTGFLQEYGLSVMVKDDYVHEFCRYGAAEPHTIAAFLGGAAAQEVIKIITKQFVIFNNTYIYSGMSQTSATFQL
Method: as §3, §4, §5, §6

cullin-3 [4] = assay: Inhibition of Nedd8 transfer to cullin (cullin neddylation); type: biochemical; settings: 5–200 µM peptide, 0.5 µM NAE, 0.5 µM Ubc12, 1 µM cullin, 1 h, then 5 µM HA-Nedd8, 15 min, Western blot
Source text: as §3

NAE [5] = target: T1, NAE; assay: ATP/PPi exchange assay (NAE activation kinetics); type: biochemical; settings: for activation by NAE: 50 µM heptameric peptide, 0.5 µM NAE, 30 min, room temperature, versus background with no peptide added; for kcat/Km: Nedd8 mimicking heptameric peptides, 0.1 µM NAE, 10–1000 µM peptide, pH 7.5, room temperature
Source text: We used the ATP/PPi exchange assay [28], [29] to measure the kinetics of NAE activation of UB mutants. In this assay, NAE catalyzes the condensation of UB with ATP to form a UB-AMP conjugate coupled to the release of PPi. Externally added PPi labeled with the radioactive isotope ^32P sets the reaction in reverse thus incorporating ^32PPi into ATP. Radioactive ATP formed in the reaction is captured by charcoal and quantified. The rate of ^32PPi exchange into ATP reflects the reactivities of NAE with the UB variants to form UB-AMP intermediates.
The reaction was incubated for 30 min at room temperature and then quenched by the addition of 0.5 mL slurry of charcoal in 2% trichloroacetic acid. After centrifugation, the charcoal pellet was washed 3 times each time with 1 mL 2% trichloroacetic acid, and eventually resuspended in 0.5 mL water and 3.5 mL Ultima Gold LSC-cocktail (Perkin Elmer). The radioactivity bound to charcoal was determined by liquid scintillation counting.
The reaction was incubated at room temperature for 5, 10, 15, 20 and 25 minutes before it was quenched with the addition of 0.5 mL slurry of charcoal in 2% trichloroacetic acid. The radioactivity incorporated into charcoal-bound ATP was measured by liquid scintillation counting. K1/2 and kcat values of the ATP-PPi exchange reaction were calculated by fitting the data to the Michaelis-Menten equation with the data analysis software Origin. To measure peptide activation by NAE, 0.1 µM NAE was used in the reaction with the concentration of the peptides varying from 10 µM to 1000 µM.

Ubc12 [6] = assay: Inhibition of Nedd8 transfer to Ubc12; type: biochemical; settings: 5–200 µM peptide, 0.5 µM NAE, 0.5 µM Ubc12, 1 µM cullin, 1 h, then 5 µM HA-Nedd8, 15 min, Western blot
Source text: as §3

NAE [7] = target: T1, NAE; assay: Inhibition of Nedd8 transfer through the cascade: NAE conjugate; type: biochemical; settings: 5–200 µM peptide, 0.5 µM NAE, 0.5 µM Ubc12, 1 µM cullin, 1 h, then 5 µM HA-Nedd8, 15 min, Western blot
Source text: as §3

UAE = settings: Ala72 of Nedd8 mutated to Arg; cited from earlier work
Source text: As expected the two proteins also adopt very similar structures featuring the β-grasp fold. Their E1 enzymes are also homologous to each other in both peptide sequences and crystal structures, except that NAE is a heterodimer of two subunits, APPBP1 and Uba3, while UAE is composed of a single chain [8], [20], [21].

NAE (Homo sapiens) = NAE (Homo sapiens) (UniProt Q13564); settings: cited from earlier work
[8] = target: T2, Nedd8 activating enzyme (NAE), heterodimer of APPBP1 and Uba3 (UniProt Q13564 1-534; Q8TBC4 33-463); assay: cell-based or functional assay
T2 sequence 1: T1 sequence (Q13564 1-534 partner)
T2 sequence 2: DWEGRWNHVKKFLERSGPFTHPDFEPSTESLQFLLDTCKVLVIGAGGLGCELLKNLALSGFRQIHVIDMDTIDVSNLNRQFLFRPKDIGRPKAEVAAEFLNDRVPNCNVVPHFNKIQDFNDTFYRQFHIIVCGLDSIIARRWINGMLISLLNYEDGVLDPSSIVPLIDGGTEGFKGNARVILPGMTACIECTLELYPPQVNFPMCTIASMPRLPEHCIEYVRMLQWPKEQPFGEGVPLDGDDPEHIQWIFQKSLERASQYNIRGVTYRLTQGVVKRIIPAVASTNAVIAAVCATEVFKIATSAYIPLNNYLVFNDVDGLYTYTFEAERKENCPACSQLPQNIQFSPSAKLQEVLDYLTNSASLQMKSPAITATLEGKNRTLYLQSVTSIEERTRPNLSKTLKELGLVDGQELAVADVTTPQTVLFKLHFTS

## N27: UB variant from phage selection, C-terminal sequence 71YQTYSG76, Gly75 replaced by Ser
Ubc12 (E2)
  transfer from NAE to Ubc12 (UB∼Ubc12 conjugates): does not form a UB∼Ubc12 conjugate
NAE (E1)
  formation of UB∼NAE conjugates: normal level of NAE activation and thioester formation with NAE
cullin-3 [1]
  transfer to cullin (cullin modification): its transfer to Ubc12 and cullin is blocked

## VWLSYGG [pN1, Nedd8-mimicking heptameric peptide VWLSYGG]
Ubc12 [2]
  formation of peptide∼Ubc12 conjugates: no observable formation of peptide∼Ubc12 conjugates
Cullin 3
  transfer of peptide to cullin 3: none of them can form peptide-cullin conjugates at a detectable level
NAE [3]
  formation of peptide∼NAE thioester conjugates: can form thioester conjugates with NAE; also recorded: form peptide∼NAE conjugates at a similar level as pN26
cullin-3 [4]
  Nedd8 conjugates with cullin after preloading with peptide: did not produce any Nedd8 conjugates with NAE, Ubc12 or cullin
NAE [5]
  activation by NAE: can be activated at a level significantly higher than the background
  kcat/Km: 3000 M⁻¹ s⁻¹
Ubc12 [6]
  Nedd8 conjugates with Ubc12 after preloading with peptide: did not produce any Nedd8 conjugates with NAE, Ubc12 or cullin
NAE [7]
  Nedd8 conjugates with NAE after preloading with peptide: did not produce any Nedd8 conjugates with NAE, Ubc12 or cullin

## Nedd8 mutant: Nedd8 with Ala72 mutated to Arg
UAE
  activation by UAE: can be activated by UAE
  increase in affinity with UAE: 65 fold

## VAAAAGG [pN11, heptameric peptide VAAAAGG derived from UB variant N11]
NAE [5]
  activation by NAE: not reactive with NAE

## VMLFYGG [pN7, Nedd8-mimicking heptameric peptide VMLFYGG]
Ubc12 [2]
  formation of peptide∼Ubc12 conjugates: only has low activity for transferring to Ubc12
Cullin 3
  transfer of peptide to cullin 3: none of them can form peptide-cullin conjugates at a detectable level
NAE [3]
  formation of peptide∼NAE thioester conjugates: can form thioester conjugates with NAE; also recorded: form peptide∼NAE conjugates at a similar level as pN26
cullin-3 [4]
  Nedd8 conjugates with cullin after preloading with peptide: did not produce any Nedd8 conjugates with NAE, Ubc12 or cullin
NAE [5]
  activation by NAE: can be activated at a level significantly higher than the background
  kcat/Km: 2670 M⁻¹ s⁻¹
Ubc12 [6]
  Nedd8 conjugates with Ubc12 after preloading with peptide: did not produce any Nedd8 conjugates with NAE, Ubc12 or cullin
NAE [7]
  Nedd8 conjugates with NAE after preloading with peptide: did not produce any Nedd8 conjugates with NAE, Ubc12 or cullin

## N11: UB variant from phage selection, C-terminal sequence 71AAAAGG76
Ubc12 (E2)
  transfer from NAE to Ubc12 (UB∼Ubc12 conjugates): can also be transferred from NAE to Ubc12
cullin-3 [1]
  transfer to cullin (cullin modification): substantial cullin modification at a level similar or exceeding that of wt Nedd8; also recorded: can also be transferred through the NAE-Ubc12 cascade to modify cullin at a similar level as N26 and the wt Nedd8

## Nedd8 (from UniProt Q15843)
NAE (Homo sapiens)
  Kd: 8.75 µM

## VLALRGG [pN26]
Ubc12 [2]
  formation of peptide∼Ubc12 conjugates: strong activity for the formation of peptide∼Ubc12 conjugates
Cullin 3
  transfer of peptide to cullin 3: can be further transferred to cullin 3
NAE [3]
  formation of peptide∼NAE thioester conjugates: can form thioester conjugates with NAE
cullin-3 [4]
  Nedd8 conjugates with cullin after preloading with peptide: did not produce any Nedd8 conjugates with NAE, Ubc12 or cullin
NAE [5]
  activation by NAE: can be activated at a level significantly higher than the background
Ubc12 [6]
  Nedd8 conjugates with Ubc12 after preloading with peptide: did not produce any Nedd8 conjugates with NAE, Ubc12 or cullin
NAE [7]
  Nedd8 conjugates with NAE after preloading with peptide: did not produce any Nedd8 conjugates with NAE, Ubc12 or cullin

B1: peptide pN26 (70VLALRGG76) (peptide)
peptide: VLALRGG
[8]
  kcat of the ATP/PPi exchange reaction catalyzed by NAE: 0.433 s⁻¹
  kcat/Km of the ATP/PPi exchange reaction catalyzed by NAE: 4830 M⁻¹ s⁻¹

B2: peptide pN1 (70VWLSYGG76) (peptide)
peptide: VWLSYGG
[8]
  Km (K1/2) of the ATP/PPi exchange reaction catalyzed by NAE: 130 µM
  kcat of the ATP/PPi exchange reaction catalyzed by NAE: 0.4 s⁻¹
  kcat/Km of the ATP/PPi exchange reaction catalyzed by NAE: 3000 M⁻¹ s⁻¹

B3: peptide pN7 (70VMLFYGG76) (peptide)
peptide: VMLFYGG
[8]
  Km (K1/2) of the ATP/PPi exchange reaction catalyzed by NAE: 155 µM
  kcat of the ATP/PPi exchange reaction catalyzed by NAE: 0.4 s⁻¹
  kcat/Km of the ATP/PPi exchange reaction catalyzed by NAE: 2670 M⁻¹ s⁻¹
